The values below come from US8163789B2, “Selective and dual-action p53/MDM2/MDM4 antagonists” (University of Pittsburgh—of the Commonwealth System of …, priority 2007, dated 2012).

MDM2, sequence (Q00987 whole entry, the tested form may be a part): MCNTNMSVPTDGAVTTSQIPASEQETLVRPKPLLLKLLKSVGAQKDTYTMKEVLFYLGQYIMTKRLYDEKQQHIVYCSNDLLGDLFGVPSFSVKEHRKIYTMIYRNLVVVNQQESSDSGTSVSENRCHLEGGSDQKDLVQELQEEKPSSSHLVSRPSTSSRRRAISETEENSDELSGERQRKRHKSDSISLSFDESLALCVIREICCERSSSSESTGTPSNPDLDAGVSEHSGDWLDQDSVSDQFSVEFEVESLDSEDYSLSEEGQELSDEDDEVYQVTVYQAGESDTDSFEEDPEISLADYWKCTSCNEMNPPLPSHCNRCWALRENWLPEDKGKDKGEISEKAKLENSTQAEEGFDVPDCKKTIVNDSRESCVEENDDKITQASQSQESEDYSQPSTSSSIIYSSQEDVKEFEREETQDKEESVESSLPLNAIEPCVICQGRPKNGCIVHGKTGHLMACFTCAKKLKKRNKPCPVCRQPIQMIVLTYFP

The first assay concerns the target MDM2 (Homo sapiens, UniProt Q00987). Description: NMR-based binding assay, MDM2. As to conditions: imidazole scaffold, Table 2. The method, then: (§1) In one of its aspects, the present invention provides a method for generating and screening virtual libraries based on 40 different MCRs having the indole fragment. The inventive method comprises docking individual molecules from the virtual library into a high resolution structure of the MDM2 protein. Docking is carried out by maintaining the same positional constraints on the indole ring of the docked molecule to those for the indole side chain in the high resolution X-ray structure of MDM2-p53 peptide. The compounds identified from docking experiments as potential inhibitors of MDM2-p53 interaction are then synthesized and tested for the inhibitory activity using an NMR-based binding assay. […] A similar strategy was used to identify and select compounds that could potentially be used as inhibitors for disrupting MDM4-p53 interaction.
Such an NMR-based screen has many advantages. For example, this screening method allows for the rapid determination of an approximate KA for the small molecule inhibitors, with the possibility of obtaining a more accurate KA value at a later time by titrating the p53-MDM2 complex using increasing concentrations of the inhibitor of interest. A second advantage of using this technique is that it allows identification of the binding site of the small molecule in the target protein by investigating the chemical shift perturbations that occur on binding. This information can then be used to further refine the chemical scaffold with an aim towards improving the affinity of the molecule for its target. Finally, NMR-based screening yields valuable information about promiscuous inhibitors which act as false positives by precipitating the target protein through hydrophobic effects. This information is not available when classical screening approaches such as fluorescence polarization or ELISA type assays are used for screening.
The compounds identified using MCR were then screened for the ability to bind MDM2 or MDM4 (KA) (primary assay). The molecules identified as binders of MDM2 or MDM4 by the primary assay are subsequently tested for their ability to disrupt the MDM2/p53-peptide complex (KD) in a secondary assay. Based on the results from the primary and secondary assays, further downstream assays involving screening using various cell lines (PC3, A549, MDAMB231) and determination of the growth inhibition constants may be performed for a select sub-set of molecules. Western blot analysis of certain compounds is performed to determine p53, MDM2, and p21 content.
For orientation: Ki means the equilibrium dissociation constant of an inhibitor or competing ligand from its target. `Clc1ccc(-c2ncn(CC3CC3)c2-c2ccc(Cl)cc2)cc1`: the Ki is around 50 µM.

The assay is the same for the next values; noted with them: imidazolidine scaffold, Table 3.
`COC(=O)C1(c2ccccc2)N=CN(CC2CC2)C1c1ccc(Cl)cc1F` (stereo not shown) [drawing 58] gave a Ki of around 2 µM. Molecule `COC(=O)C1(c2ccccc2)N=CN(c2ccc(Cl)cc2)C1c1ccc(Cl)cc1` (stereo not shown) displayed an inhibition constant Ki of around 5 µM. `COC(=O)C1(C)N=CN(CC2CC2)C1c1ccc(Cl)cc1` (stereo not shown): the Ki was around 2 µM. In turn, `COC(=O)C1(c2ccccc2)N=CN(C(C)c2ccc(Cl)cc2)C1c1ccc(Cl)cc1` (stereo not shown) registered a Ki of around 20 µM. In turn, `COC(=O)C1(C)N=CN(CC2CC2)C1c1c[nH]c2ccccc12` (stereo not shown) gave a Ki of around 50 µM. `COC(=O)C1(C)N=CN(CC2CC2)C1c1cc2ccc(Cl)cc2[nH]1` (stereo not shown) showed a Ki of around 50 µM. Molecule `COC(=O)C1(CC(C)C)N=CN(CC2CC2)C1c1ccc(Cl)cc1` (stereo not shown) returned a Ki of around 1 µM. On the same count and under the same terms, the result for `COC(=O)C1(c2ccccc2)N=CN(CC(C)C)C1c1ccc(Cl)cc1` (stereo not shown) reads around 10 µM; that for `COC(=O)C1(c2ccccc2)N=CN(CC2CCCNC2)C1c1ccc(Cl)cc1` (stereo not shown), around 20 µM; that for `COC(=O)C1(c2ccccc2)N=CN(C2CCCCC2)C1c1ccc(Cl)cc1` (stereo not shown), around 20 µM. In the case of `COC(=O)C1(c2ccccc2)N=CN(CC2CC2)C1c1ccc(Cl)cc1F` (stereo not shown) [drawing 45], the Ki was around 2 µM.

In turn, `COC(=O)C1(c2ccccc2)N=CN(Cc2cccnc2)C1c1ccc(Cl)cc1` (stereo not shown) registered a Ki of around 5 µM. `COC(=O)C1(c2ccccc2)N=CN(Cc2cccc(N)c2)C1c1ccc(Cl)cc1` (stereo not shown) showed a Ki of around 5 µM. In turn, `COC(=O)C12N=CN(CC3CC3)C1c1ccc(Cl)cc1C2C` (stereo not shown) returned a Ki of around 2 µM. For `COC(=O)C1(c2ccc(Cl)cc2)N=CN(CC2CC2)C1c1cc2ccc(Cl)cc2[nH]1` (stereo not shown), the Ki was around 50 µM. In turn, `COC(=O)C1(c2ccccc2)N=CN(C2CCNCC2)C1c1ccc(Cl)cc1` (stereo not shown) showed a Ki of around 50 µM.

With `COC(=O)C1(c2ccccc2)N=CN(CC2CC2)C1c1ccc(Br)cc1` (stereo not shown), the Ki was around 6 µM.

For the molecule `COC(=O)C1(c2ccccc2)N=CN(CC2CC2)C1c1cc2ccc(Cl)cc2[nH]1` (stereo not shown), the Ki was around 40 µM. On to `COC(=O)C1(c2ccc(Cl)cc2)N=CN(CC2CC2)C1c1ccc(Cl)cc1` (stereo not shown) [drawing 67], for which the Ki is around 40 µM. Same read-out and setting: the result for `COC(=O)C1(c2ccccc2)N=CN(CC2CC2)C1c1c[nH]c2ccccc12` (stereo not shown) reads around 30 µM. For `COC(=O)C1(CCSC)N=CN(CC2CC2)C1c1ccc(Br)cc1` (stereo not shown), the Ki is around 20 µM. The same measure, in the same setting: the figure for `O=C(O)C1(c2ccccc2)N=CN(CC2CC2)C1c1ccc(Cl)cc1` (stereo not shown) is around 50 µM; for `COC(=O)C1(CCSC)N=CN(CC2CC2)C1c1ccc(Cl)cc1` (stereo not shown) it is around 10 µM; for `O=C(NCCN1CCOCC1)C1(c2ccccc2)N=CN(CC2CC2)C1c1ccc(Cl)cc1` (stereo not shown) it is 1 µM. Still for that read-out and setting: the result for `COC(=O)C1(c2ccc(Cl)cc2)N=CN(CC2CC2)C1c1ccc(Cl)cc1` (stereo not shown) [drawing 44] reads around 5 µM; that for `O=C(N1CCNCC1)C1(c2ccccc2)N=CN(CC2CC2)C1c1ccc(Cl)cc1` (stereo not shown), around 1 µM; that for `O=C(NCCCN1CCOCC1)C1(c2ccccc2)N=CN(CC2CC2)C1c1ccc(Cl)cc1` (stereo not shown), 1 µM.

In a further assay the test system is HCT116 cells. Description: GI50 against HCT116 cells in culture. The assay is classed as cell-based. The following applies: Homo sapiens, HCT-116, imidazole scaffold, Table 2. The method, then: A second approach for increasing affinity, entails introducing substituents in the 2-position of the imidazole ring to gain additional van der Waals interaction and even water solubility. A substituent in the 2-position would mimic the interactions of the Leu (FSDLWKLL) in p53, which contributes additional van der Waals interactions in addition to FWL. Optimization of compounds that belong to this family was carried out as shown in Scheme 1. Table 2 lists representative analogs that were synthesized with their GI50 values against HCT116 cells in culture. The chemistry to accomplish substitution at position-2 of the immidazole ring would involve generation of the carbanion using LDA and subsequent alkylation with iminium salts or other alkylating agents.
As usually defined, the GI50 is the concentration at which growth is held to half of that of the control. Read a low GI50 as more potent growth inhibition. Regarding `C[C@@H](c1ccc(Cl)cc1)n1cnc(-c2ccc(Cl)cc2)c1-c1cc2ccc(Cl)cc2[nH]1`, the GI50 is around 20 µM.

The molecule `C[C@H](c1ccc(Cl)cc1)n1cnc(-c2ccc(Cl)cc2)c1-c1cc2ccc(Cl)cc2[nH]1` returned a GI50 of around 20 µM. For `Clc1ccc(-c2ncn(CC3CC3)c2-c2c[nH]c3cc(Cl)ccc23)cc1`, the GI50 was around 40 µM. Molecule `Clc1ccc(-c2ncn(CC3CC3)c2-c2ccc(Cl)cc2)cc1` had a 50% growth inhibitory concentration (GI50) of around 10 µM. As for `Fc1cc(Cl)ccc1-c1c(-c2ccc(Cl)cc2)ncn1Cc1ccccc1`, the GI50 was around 20 µM.

As to `Clc1ccc2c(-c3c(-c4ccc(Cl)c(Cl)c4)ncn3CC3CC3)c[nH]c2c1`, the GI50 is around 10 µM. Regarding `Clc1ccc(-c2ncn(CC3CC3)c2-c2c[nH]c3ccccc23)cc1`, the GI50 was around 35 µM.

`Clc1ccc(-c2ncn(CC3CC3)c2-c2cc3ccc(Cl)cc3[nH]2)cc1`: the GI50 was around 40 µM. `Clc1ccc2c(-c3c(-c4ccc5c(c4)OCO5)ncn3CC3CC3)c[nH]c2c1` registered a GI50 of around 1 µM. Same read-out and setting: the result for `CN(C)Cc1nc(-c2ccc(Cl)cc2)c(-c2ccc(Cl)cc2)n1CC1CC1` reads around 20 µM; that for `CC(c1cccc2ccccc12)n1cnc(-c2ccc(Cl)cc2)c1-c1cc2ccc(Cl)cc2[nH]1` (stereo not shown), around 5 µM. `CC(C)(C)OC(=O)n1cc(-c2c(-c3ccc(Cl)cc3)ncn2CC2CC2)c2ccc(Cl)cc21` gave a GI50 of around 50 µM. The same measure, in the same setting: the result for `CC(c1ccc(Cl)cc1)n1cnc(-c2ccc(Cl)cc2)c1-c1cc2ccc(Cl)cc2[nH]1` (stereo not shown) reads around 30 µM. `Clc1cccc(Cc2ncn(CC3CC3)c2-c2c[nH]c3ccccc23)c1` showed a GI50 of around 25 µM.

In the next assay the target is T1, MDM4 (Homo sapiens, UniProt O15151).
T1 sequence (O15151 1-490): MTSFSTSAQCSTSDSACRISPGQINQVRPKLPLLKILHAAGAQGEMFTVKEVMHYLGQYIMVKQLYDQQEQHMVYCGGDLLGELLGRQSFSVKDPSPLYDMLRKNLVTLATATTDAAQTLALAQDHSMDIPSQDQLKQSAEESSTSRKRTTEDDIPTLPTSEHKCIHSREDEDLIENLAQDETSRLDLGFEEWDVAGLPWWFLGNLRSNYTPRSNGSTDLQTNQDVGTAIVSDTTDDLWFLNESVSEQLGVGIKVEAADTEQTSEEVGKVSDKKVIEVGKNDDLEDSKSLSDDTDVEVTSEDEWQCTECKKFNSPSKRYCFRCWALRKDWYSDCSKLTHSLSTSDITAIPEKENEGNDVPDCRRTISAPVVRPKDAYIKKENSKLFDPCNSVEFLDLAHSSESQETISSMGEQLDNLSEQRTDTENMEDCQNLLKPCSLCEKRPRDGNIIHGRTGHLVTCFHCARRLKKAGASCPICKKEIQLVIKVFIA
Description: NMR-based binding assay, MDM4. As to conditions: imidazolidine scaffold, Table 3. The method, then: as §1
The compounds identified using MCR were then screened for the ability to bind MDM2 or MDM4 (KA) (primary assay). The molecules identified as binders of MDM2 or MDM4 by the primary assay are subsequently tested for their ability to disrupt the MDM2/p53-peptide complex (KD) in a secondary assay. Based on the results from the primary and secondary assays, further downstream assays involving screening using various cell lines (PC3, A549, MDAMB231) and determination of the growth inhibition constants may be performed for a select sub-set of molecules. […]
`COC(=O)C1(c2ccccc2)N=CN(Cc2cccc(N)c2)C1c1ccc(Cl)cc1` (stereo not shown) came in with a Ki of around 5 µM.
